Patent US5508295A, “Use of amino acyl amino propargyl diol compounds for treatment of glaucoma” (G. D. Searle & Co., priority 1994, dated 1996)
Non-standard residues stand in square brackets, D forms with d. Residues, ends and D or L forms follow the SMILES beside them. *: point of attachment. Sta = CC(C)C[C@H](N)[C@@H](O)CC(=O)O; Isovaleryl = CC(C)CC(=O)*

What was measured:
human renin = target: T1, human renin (Homo sapiens, UniProt P00797); experiment: Human Renin Inhibition in vitro (angiotensin I by radioimmunoassay); format: biochemical; conditions: pH 7.4, two hours at 37° C.
T1 construct: purchased National Institute for Biological Standards, London
T1 sequence (P00797 67-406): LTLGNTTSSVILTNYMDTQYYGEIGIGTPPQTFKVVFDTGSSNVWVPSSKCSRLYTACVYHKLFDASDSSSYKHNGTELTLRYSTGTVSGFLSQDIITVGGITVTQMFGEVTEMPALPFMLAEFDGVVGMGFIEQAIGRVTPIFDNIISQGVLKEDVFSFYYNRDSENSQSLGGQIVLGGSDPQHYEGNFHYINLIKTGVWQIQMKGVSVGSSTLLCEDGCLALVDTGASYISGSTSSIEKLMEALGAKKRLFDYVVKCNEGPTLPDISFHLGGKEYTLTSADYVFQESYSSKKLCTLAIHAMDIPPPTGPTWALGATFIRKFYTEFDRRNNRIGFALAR
Procedure: Compounds of Formula I were evaluated as inhibitors of human renin in an in vitro assay, as follows: This human renin inhibition test has been previously described in detail [Papaioannou et al., Clinical and Experimental Hypertension, A7(9), 1243-1257 (1985)]. Human renin was obtained from the National Institute for Biological Standards, London. An incubation mixture was prepared containing the following components: in a total volume of 0.25 mL: 100 mM Tris-acetate buffer at pH 7.4, 25×10-6 Goldblatt units of renin, 0.05 mL of plasma from human volunteers taking oral contraceptives, 6.0 mM Na-EDTA, 2.4 mM phenylmethyl sulfonyl fluoride, 1.5 mM 8-hydroxyquinoline, 0.4 mg/mL bovine serum albumin (BSA), and 0.024 mg/mL neomycin sulfate. This mixture was incubated for two hours at 37° C. in the presence or absence of renin inhibitors. The produced angiotensin I was determined by radioimmunoassay (New England Nuclear kit). Test compounds to be assayed were dissolved in DMSO and diluted with 100 mM Tris-acetate buffer at pH 7.4 containing 0.5% BSA to the appropriate concentration. The final concentration of organic solvent in the reaction mixture was less than 1%. Control incubations at 37° C. were used to correct for effects of organic solvent on renin activity.

renin = conditions: Umezawa et al, J. Antibiot. 1970; cited from earlier work
blood pressure = conditions: after the injection of hog renin into nephrectomized rats; Gross et al, Science 1971; cited from earlier work
cathepsin D = conditions: Umezawa et al, J. Antibiot. 1970; cited from earlier work
pepsin = conditions: Umezawa et al, J. Antibiot. 1970; cited from earlier work

| IC50 (human renin) | SMILES | inhibitor of aspartyl proteases: renin (renin) | reduce blood pressure in vivo (blood pressure) | inhibitor of aspartyl proteases: cathepsin D (cathepsin D) | inhibitor of aspartyl proteases: pepsin (pepsin) |
| --- | --- | --- | --- | --- | --- |
| 28 nM | C#CC[C@H](O)[C@H](O)[C@H](CC1CCCCC1)NC(=O)[C@H](Cc1cscn1)NC(=O)[C@@H](CC(=O)N(C)CCN(C)C)Cc1ccccc1 [Example 1, N^1-[2-[[1S,1R*-(cyclohexylmethyl-2S*,3R*-dihydroxy-5-hexynyl]amino]-2-oxo-1R*-(4-thiazolylmethyl)ethyl]-N^4-[2-(dimethylamino)ethyl]-N^4-methyl-2S*-(phenylmethyl)butanediamide] |  |  |  |  |
|  | CC(C)CC(=O)N[C@H](C(=O)N[C@H](C(=O)N[C@@H](CC(C)C)[C@@H](O)CC(=O)N[C@@H](C)C(=O)N[C@@H](CC(C)C)[C@@H](O)CC(=O)O)C(C)C)C(C)C [pepstatin] (Isovaleryl-VV[Sta]A[Sta]-OH) | inhibitor of aspartyl proteases such as pepsin, cathepsin D and renin | found to reduce blood pressure in vivo | inhibitor of aspartyl proteases such as pepsin, cathepsin D | inhibitor of aspartyl proteases such as pepsin |
